Laboratory results as given in patent US20080145465A1, “Sesquiterpene lactone extract from artemisia leucodes for reducing inflammation and down-regulating pro-inflammatory gene expression” (priority 2006, published 2008).
Values joined by “and” are separate entries in the source; they are usually repeats but may differ in a detail not shown here. Equal entries are not always repeated. “Also recorded” adds a separate entry of the source. Where two headings read alike, the source gives them in different places.

Columns and labels:
Assay type in all cases: cell-based, murine
COX-2 = assay: Quantitative real-time RT-PCR: COX-2 gene expression in LPS-elicited RAW 264.7 macrophages; conditions: for COX-2 gene expression (LPS control = 100; values less than 100 represent inhibition): Table 4 experiment
Experimental: (§1) RAW 264.7 murine monocyte/macrophages (ATCC TIB-71) were maintained in Dulbecco's Modified Eagle Medium (D-MEM, Invitrogen Corp., Carlsbad, Calif.) supplemented with 10% fetal bovine serum (FBS, Invitrogen Corp., Carlsbad, Calif.) and 1% streptomycin and were kept in a humidified 37° C. incubator with 5% CO2. Cells were subcultured by scraping when plates reached 90% confluency with a 1:5 ratio.
(§2) Murine RAW macrophages 264.7 were plated at a density of 0.4×10^6 cells per well in 24-well plates 12 hours prior to treatment. A stock solution of AL-1 was created by completely dissolving the dry extract as in Example 1 in 95% ethanol. Two hours before elicitation with lipopolysaccharide (LPS, 1 μg/ml, Sigma, St. Louis, Mo.) the cells were treated with various concentrations of AL-1 (25-200 μg/ml) or vehicle control, maintaining a final concentration of 0.5% ethanol for all treatments. After six hours of treatment, RNA was extracted from cells using TRIzol® reagent (Invitrogen Corp., Carlsbad, Calif.) according to the manufacturer instructions. RNAs were quantified spectrophotometrically at 260 nm and stored at −80° C. until real-time PCR could be performed.
(§3) RNA was purified by treating with DnaseI (Invitrogen Corp., Carlsbad, Calif.) before performing reverse transcription with Stratascript Reverse Transcriptase, an RNA dependent DNA polymerase (Stratagene, La Jolla, Calif.) according to the manufacturer instructions. The cDNAs obtained were then amplified by real-time PCR. Expression of COX-2, iNOS, IL1β and β-actin gene expression levels was quantified using a Stratagene Mx 3000P™ Real-Time PCR System (Stratagene, La Jolla, Calif.). Primers for each gene were designed using Primer Express® version 2.0 software (Applied Biosystems, Foster City, Calif.; Table 2) (Giulietti et al., 2001; Overbergh et al., 2003).
(§4) Real-time PCR analyses were carried out using a Brilliant® SYBR® Green PCR master mix kit (Stratagene, La Jolla, Calif.) according to kit instructions. Samples were amplified using the following program: two minutes incubation at 50° C.; initial denaturation and polymerase activation at 95° C. for ten minutes; 40 PCR cycles consisting of 15 seconds at 95° C. and 60 seconds at 60° C. each. The RNA expression of the target genes were analyzed by ΔΔCT methods (Winer et al., 1999) using β-Actin gene as normalizer. The ΔΔCT values obtained from these analyses directly reflect the relative mRNA quantities for the marker gene in response to specific treatments. Lower ΔΔCT values indicate greater anti-inflammatory activity. The changes in gene expression as reflected by ΔΔCT values can also be expressed as percentage genetic inhibition [(1−ΔΔCT)×100] indicating anti-inflammatory properties of the test compounds. Amplification of specific transcripts was further confirmed by obtaining melting curve profiles. All samples were run in duplicate; four independent analyses were performed.

[1] = test system: nitric oxide (NO) production from RAW macrophages; assay: Griess assay for NO production by LPS-stimulated RAW macrophages; conditions: LPS 1 μg/mL, 24 hours, n = 8, % of control
IL1β = assay: Quantitative real-time RT-PCR: IL1β gene expression in LPS-elicited RAW 264.7 macrophages; conditions: for IL1β gene expression (LPS control = 100; values less than 100 represent inhibition): Table 4 experiment; for effect on IL1β gene expression (in words): LPS-elicited RAW macrophages
Experimental: as §1, §2, §3, §4

[2] = test system: nitric oxide (NO) production from RAW macrophages; assay: Griess assay for NO production by LPS-stimulated RAW macrophages; conditions: for NO production (relative to control), mean ± SE: LPS 1 μg/mL, 24 hours, n = 8, % of control; for IC50: read-out: IC50, inhibition of NO production
Experimental: as §1
Down-regulation of various pro-inflammatory genes including iNOS, IL1β, and TNF-α can reduce nitric oxide production by macrophages. In order to confirm that changes in pro-inflammatory gene expression were affecting cellular function, the Griess assay was performed to indirectly measure nitric oxide production by LPS-induced macrophages by measuring nitrite (Misko et al., 1993). For the assay, RAW cells were plated in a 24-well plate at a minimum density of 0.4×10^6 cells/well and grown for 24 hours. A stock solution of AL-1 was created by completely dissolving dry extract as in Example 1 in 95% ethanol. Cells were stimulated with 1 μg/mL LPS with simultaneous addition of AL-1 (10-100 μg/mL), aspirin (10 mM), or vehicle control (0.5% ethanol), maintaining a final concentration of 0.5% ethanol for every treatment. After 24 hours, conditioned media (50 μl) was removed and immediately mixed with 100 μl of Griess reagent (10% sulfanilamide, 1% naphthalene-ethylenediamine dihydrochloride in 5% H3PO4, all from Sigma, St. Louis, Mo.). After incubation for 15 minutes at room temperature, the samples were read at 550 nm using a microplate spectrophotometer (Molecular Devices, Sunnyvale, Calif.). Data for each treatment were normalized based on results from an MTS cell proliferation assay.
A CellTiter 96 assay kit (Promega Corp. Madison, Wis.) was used to determine the relative number of viable cells remaining after incubation with treatments. For the assay, old media containing treatments or controls was removed from the 96-well plates and replaced with 100 μL fresh media per well. Next, 20 μL MTS/PMS reagent ([3-(4,5-dimethylthiazol-2-yl)-5-(3-carboxymethoxyphenyl)-2-(4-sulfophenyl)-2H-tetrazolium plus phenazine methosulfate) was added to each well followed by a three hour incubation period at 37° C., 5% CO2. Plates were read using a microplate reader (Molecular Devices, Sunnyvale, Calif.) at 490 nm. A blank row corrected for background noise and data was expressed as a percent of the LPS control. Each treatment was tested on three different plates with 8 wells on each plate for a total of 24 wells.

CC1=CC(=O)C2=C(C)CC[C@@H]3[C@H](OC(=O)[C@H]3C)[C@@H]12 [leukomisin]
COX-2 gene expression (LPS control = 100; values less than 100 represent inhibition) (COX-2; 25 μg): 140
COX-2 gene expression (LPS control = 100; values less than 100 represent inhibition) (COX-2; 50 μg): 165
COX-2 gene expression (LPS control = 100; values less than 100 represent inhibition) (COX-2; 75 μg): 159
effect on COX-2 gene expression (in words) (COX-2; LPS-elicited RAW macrophages): no affect on gene expression; also recorded: no activity
NO production (relative to control), mean ± SE ([1]; 2 μg/ml): 100 ± 2%
NO production (relative to control), mean ± SE ([1]; 4 μg/ml): 98 ± 1%
IL1β gene expression (LPS control = 100; values less than 100 represent inhibition) (IL1β; 25 μg): 110
IL1β gene expression (LPS control = 100; values less than 100 represent inhibition) (IL1β; 50 μg): 161
IL1β gene expression (LPS control = 100; values less than 100 represent inhibition) (IL1β; 75 μg): 281
effect on IL1β gene expression (in words) (IL1β): no affect on gene expression; also recorded: no activity
NO production (relative to control), mean ± SE ([2]; 20 μg/ml): 82 ± 4 %
NO production (relative to control), mean ± SE ([2]; 50 μg/ml): 72 ± 1 %
NO production (relative to control), mean ± SE ([2]; 100 μg/ml): 64 ± 2 %
IC50, inhibition of NO production ([2]; RAW macrophages elicited with LPS): 160 µg/mL
IC50 ([2]; RAW macrophages elicited with LPS, molar value in brackets): 650 µM

CC1=CC(=O)C2=C(C)C[C@H](O)[C@@H]3[C@H](OC(=O)[C@H]3C)[C@@H]12 (single isomer, unassigned) [austricin]
COX-2 gene expression (LPS control = 100; values less than 100 represent inhibition) (COX-2; 25 μg): 120
COX-2 gene expression (LPS control = 100; values less than 100 represent inhibition) (COX-2; 50 μg): 116
COX-2 gene expression (LPS control = 100; values less than 100 represent inhibition) (COX-2; 75 μg): 102
NO production (relative to control), mean ± SE ([1]; 2 μg/ml): 100 ± 1%
NO production (relative to control), mean ± SE ([1]; 4 μg/ml): 100 ± 1%
IL1β gene expression (LPS control = 100; values less than 100 represent inhibition) (IL1β; 25 μg): 58
IL1β gene expression (LPS control = 100; values less than 100 represent inhibition) (IL1β; 50 μg): 65
IL1β gene expression (LPS control = 100; values less than 100 represent inhibition) (IL1β; 75 μg): 65
effect on IL1β gene expression (in words) (IL1β): only marginal activity
NO production (relative to control), mean ± SE ([2]; 20 μg/ml): 89 ± 1 %
NO production (relative to control), mean ± SE ([2]; 50 μg/ml): 89 ± 1 %
NO production (relative to control), mean ± SE ([2]; 100 μg/ml): 84 ± 2 %
IC50 ([2]; Mus musculus, Macrophage): 440 µg/mL and 1.68 mM
